Patent US6060608A, “Analogs of CC-1065 and the duocarmycins” (The Scripps Research Institute, priority 1999, dated 2000)

Tests used:
[1] = In vitro cytotoxic activity (cell line not given); type: cell-based; settings: for less potent than ent-(-)-1: unnatural enantiomers
w794 duplex DNA = assay: DNA alkylation selectivity and efficiency within w794 DNA, thermally-induced strand cleavage and PAGE; type: biochemical, SV40; settings: for DNA alkylation less efficient than 1 or 305: 25° C., 24 h
Description: DNA Alkylation Selectivity and Efficiency. The DNA alkylation properties of the agents were examined within w794 duplex DNA, a 144 base-pair segment of duplex DNA for which comparative results are available for related agents. The alkylation site identification and the assessment of the relative selectivity among the available sites were obtained by thermally-induced strand cleavage of the singly 5' end-labeled duplex DNA after exposure to the agents. Following treatment of the end-labeled duplex DNA with a range of agent concentrations, the unbound agent was removed by EtOH precipitation of the DNA. Redissolution of the DNA in aqueous buffer, thermolysis (100° C., 30 min) to induce strand cleavage at the sites of DNA alkylation, denaturing high resolution polyacrylamide gel electrophoresis (PAGE) adjacent to Sanger dideoxynucleotide sequencing standards, and autoradiography led to identification of the DNA cleavage and alkylation sites. The DNA alkylation reaction selectivities observed under the incubation conditions for the agents detailed herein have proven identical to the alkylation selectivities observed with shorter or extended reaction periods or when the reactions were conducted at different temperatures (37 or 4° C., 0.5-7 d). As discussed below, the rates and efficiencies but not final relative efficiencies of DNA alkylation were altered by changing the reaction temperatures.
DNA Alkylation Properties. […] The DNA alkylation reaction was examined within w794 DNA for which comparative results are available for past agents. The alkylation site identification was obtained by thermal strand cleavage of the singly 5' end-labeled duplex DNA after exposure to the agents. Following treatment of the labeled DNA with a range of agent concentrations, the unbound agent was removed by EtOH precipitation of the DNA. Redissolution of the DNA in aqueous buffer, thermolysis at 100° C. (30 min) to induce depurination and strand cleavage at the adenine N3 or guanine N3 minor groove alkylation sites, denaturing high resolution PAGE adjacent to Sanger sequencing standards and autoradiography provided the DNA cleavage and alkylation sites.
DNA Alkylation Studies: selectivity and Efficiency. General procedures, the preparation of singly ^32 P 5' end-labeled double stranded DNA, the agent binding studies, gel electrophoresis, and autoradiography were conducted according to standard procedures. Eppendorf tubes containing the 5' end-labeled DNA (9 μL) in TE buffer (10 mM Tris, 1 mM EDTA, pH 7.5) were treated with the agent in DMSO (1 μL at the specified concentration). The solution was mixed by vortexing and brief centrifugation and subsequently incubated at 4 or 25° C. for 24 h (natural enantiomers) and 25 or 37° C. (unnatural enantiomers) for 72 h. The covalently modified DNA was separated from unbound agent by EtOH precipitation and resuspended in TE buffer (10 μL). The solution of DNA in an Eppendorf tube sealed with parafilm was warmed at 100° C. for 30 min to induce cleavage at the alkylation sites, allowed to cool to 25° C. and centrifuged. Formamide dye (0.03% xylene cyanol FF, 0.03% bromophenol blue, 8.7% Na2 EDTA 250 mM) was added (5 μL) to the supernatant. Prior to electrophoresis, the sample was denatured by warming at 100° C. for 5 min, placed in an icebath, and centrifuged, and the supernatant (3 μL) was loaded directly onto the gel. Sanger dideoxynucleotide sequencing reactions were run as standards adjacent to the reaction samples. Polyacrylamide gel electrophoresis (PAGE) was run on an 8% sequencing gel under denaturing conditions (8 M urea) in TBE buffer (100 mM Tris, 100 mM boric acid, 0.2 mM Na2 EDTA) followed by autoradiography.
DNA Alkylation of w794 DNA. Eppendorf tubes containing the 5'-end labeled DNA (9 μL) in TE buffer (10 mM Tris, 1 mM EDTA, pH 7.2) were treated with the agent in DMSO (1 μL at the specified concentration). […]

L1210 = assay: In vitro cytotoxic activity, L1210; settings: for relative cytotoxic potency of natural versus unnatural enantiomers: N-BOC derivatives
[2] = tested on: w794 DNA, 5'-AATTA high affinity site; assay: Relative rate of DNA alkylation at the w794 5'-AATTA high affinity site; type: biochemical, SV40; settings: 25° C.
Experimental: Rate of DNA Alkylation. The relative rates of DNA alkylation for the natural enantiommers of CCBI-TMI (35) and CCBI-indole2 (37) versus those of the corresponding CBI and MCBI agents were measured at the single high affinity site in w794, 5'-AATTA. The relative rates earlier studies of DNA alkylation for MCBI-TMI, CBI-TMI, and duocarmycin SA were determined to be quite similar at 4° C., 1.8:1.0:0.9, respectively. […] In prior studies, we have highlighted similar observations with agents that span a much larger range of relative reactivities.
The DNA alkylation selectivity and efficiency of the natural enantiomers of 304-307 were compared with that of 1 in w794 DNA. […] These trends in the overall efficiency of DNA alkylation parallel the relative trends in cytotoxic potency.
(§1) DNA Alkylation Relative Rate of (+)-CCBI-TMI (35), (+)-CBI-TMI, and (+)-MCBI-TMI. Following the procedure detailed above, Eppendorf tubes containing 5' end-labeled w794 DNA (9 μL) in TE buffer (pH 7.5) were treated with (+)-CCBI-TMI (35), (+)-CBI-TMI, or (+)-MCBI-TMI (1 μL, 10^-6 M in DMSO). The solutions were mixed and incubated at 25° C. for 2, 4, 6, 9, 12, 15, and 24 h, respectively. Subsequent isolation of the alkylated DNA by EtOH precipitation, resuspension in TE buffer (10 μL, pH 7.5), thermolysis (30 min, 100° C.), PAGE, and autoradiography were conducted as detailed above. Relative rates for alkylation at the w794 high-affinity 5'-AATTA site were derived from the slopes of the plots of percent integrated optical density (IOD) of the high-affinity alkylation cleavage bands versus time.
as §1, with “(+)-CCBI-indole2 (37), (+)-CBI-indole2,” for “(+)-CCBI-TMI (35), (+)-CBI-TMI,”, “(+)-MCBI-indole2.” for “(+)-MCBI-TMI.”, “(+)-CCBI-indole2 (37), (+)-CBI-indole2, and (+)-MCBI-indole2” for “(+)-CCBI-TMI (35), (+)-CBI-TMI, or (+)-MCBI-TMI”

[3] = Aqueous solvolysis reactivity followed by UV; type: physicochemical
Experimental: The reactivity of 217-219 was assessed by following the solvolysis spectrophotometrically by UV at both pH 3 (50% CH3 OH-buffer, buffer=4:1:20 (v/v/v) 0.1 M citric acid, 0.2 M Na2 HPO4, H2 O) and pH 7 (1:1 H2 O--CH3 OH) measuring both the disappearance of the long-wavelength absorption band of the F2 CBI chromophore and the appearance of a short-wavelength absorption band attributable to the ring open products (FIG. 31).
Aqueous Solvolysis Reactivity. pH 3: N-BOC-CCBI (25, 100 μg) was dissolved in CH3 OH (1.5 mL) and mixed with pH 3 aqueous buffer (1.5 mL). The buffer contained 4:1:20 (v:v:v) 0.1 M citric acid, 0.2 M Na2 HPO4 and H2 O, respectively. The solvolysis solution was sealed and kept at 25° C. protected from light. The UV spectrum was measured at regular intervals every 2 h during the first day, every 12 h for another week, and every 24 h for an additional week. The decrease in the long-wavelength absorption at 322 nm and the increase in the short-wavelength absorption at 268 nm were monitored, FIG. 1.
pH 2: Samples of 25 (100 μg) and 26 (50 μg) were dissolved in CH3 OH (1.5 mL) and the solutions were mixed with aqueous buffer (pH 2.05, 1.5 mL). The buffer contained 4:1:20 (v:v:v) 1.0 M citric acid, 0.2 M Na2 HPO4, and H2 O, respectively. Immediately after mixing, the UV spectra of the solutions were measured against a reference solution containing CH3 OH (1.5 mL) and the aqueous buffer (1.5 mL) and these readings were used for the initial absorbance values. The solutions were stoppered, protected from the light, and allowed to stand at 25° C. UV spectra were recorded at regular intervals until constant values were obtained for the long and short wavelength absorbances. The solvolysis rate constants were determined from the slope of the lines obtained from linear least squares treatment of plots of ln[(Af -Ai)/(Af -A)] versus time using the short wavelength measurements for 25 and long wavelength measurements for 26).

[4] = natural enantiomers, 37° C., 72 h

Compound: COC(=O)c1cc2c([nH]1)C(=O)C=C1N(C(=O)c3cc4ccccc4[nH]3)CC3CC123 (single isomer, unassigned) [compound 304]
- reduction in cytotoxic potency relative to duocarmycin SA ([1]; natural enantiomers): 6.5 -fold
- less potent than ent-(-)-1 [1]: 13-18 ×
- DNA alkylation less efficient than 1 or 305 (w794 duplex DNA; natural enantiomers): 20 ×

Compound: COc1ccc2c(c1)C13CC1CN(C(=O)OC(C)(C)C)C3=CC2=O (stereo not drawn) [N-BOC-MCBI, reference compound]
- relative cytotoxic potency of natural versus unnatural enantiomers (L1210): 2 ×
- concentration at which DNA alkylation is detectable (w794 duplex DNA; [4]): 10^-3 M
- concentration at which DNA alkylation is prominent (w794 duplex DNA; [4]): 10^-2 M

Compound: COC(=O)c1cc2c([nH]1)C(=O)C=C1N(C(=O)c3cc4ccc(OC)cc4[nH]3)CC3CC123 (single isomer, unassigned) [compound 306]
- cytotoxic activity relative to duocarmycin SA or 304 (words) [1]: intermediate activity
- properties relative to duocarmycin SA or 304 [1]: properties more analogous to 304
- less potent than ent-(-)-1 [1]: 13-18 ×
- DNA alkylation less efficient than 1 or 305 (w794 duplex DNA; natural enantiomers): 5-10 ×

Compound: CCOC(=O)CCC(=O)N1CC2CC23C1=CC(=O)c1ccccc13 (stereo not drawn) [compound 116, N^2-(4-ethoxy-1,4-dioxobutyl)-1,2,9,9a-tetrahydrocyclopropa[c]benz[e]indole-4-one]
- cytotoxic activity, ring opened precursor 115 versus cyclopropane 116 (L1210; L1210): no distinctions were observed
- IC50 (L1210; Mus musculus, L1210, read-out: cytotoxic activity IC50): 5 to 6 nM
- more effective at alkylating DNA than N-BOC-CBI (123) (w794 duplex DNA; natural enantiomer): 10-100 ×

Compound: COC(=O)c1cc2c([nH]1)C(=O)C=C1N(C(=O)c3cc4cccc(OC)c4[nH]3)CC3CC123 (single isomer, unassigned) [compound 307]
- cytotoxic activity relative to duocarmycin SA or 304 (words) [1]: equipotent with (+)-304
- properties relative to duocarmycin SA or 304 [1]: properties more analogous to 304
- less potent than ent-(-)-1 [1]: 13-18 ×
- DNA alkylation less efficient than 1 or 305 (w794 duplex DNA; natural enantiomers): 5-10 ×

Compound: COc1cc2cc(C(=O)N3CC4CC45C3=CC(=O)c3ccc(C#N)cc35)[nH]c2c(OC)c1OC (stereo not drawn) [compound 35]
- relative rate of DNA alkylation, TMI series ([2]; 10^-6 M): 2.5 ×
- DNA alkylation more efficient than MCBI or CBI based agents (w794 duplex DNA): 1.5-2 ×
- DNA alkylation sequence selectivity (w794 duplex DNA): strong preference but not absolute requirement for the fourth 5' base to be A or T versus G or C

Compound: COC(=O)c1cc2c([nH]1)C(=O)C=C1N(C(=O)c3cc4cc(OC)ccc4[nH]3)CC3CC123 (single isomer, unassigned) [ent-(-)-305]
- cytotoxic activity relative to duocarmycin SA or 304 (words) [1]: more closely approached the full activity of ent-(-)-1

Compound: CC(C)(C)OC(=O)N1CC2CC23C1=CC(=O)c1ccccc13 (stereo not drawn) [N-BOC-CBI, reference compound]
- solvolysis stability/reactivity [3]: stable
- half-life ([3]; 50% ch3oh-buffer, pH 3): 133 h
- solvolysis rate constant k ([3]; pH 3, 50% CH3OH-buffer): 1.45e-06 s⁻¹
- relative cytotoxic potency of natural versus unnatural enantiomers (L1210): 11 ×
- concentration at which both enantiomers alkylate DNA (w794 duplex DNA; FIG. 24, 37° C., 48 h): 10^-2 M

Compound: N#Cc1ccc2c(c1)C13CC1CN(C(=O)c1cc4cc(NC(=O)c5cc6ccccc6[nH]5)ccc4[nH]1)C3=CC2=O (single isomer, unassigned) [compound 37]
- relative rate of DNA alkylation, indole2 series [2]: 2.5 ×
- DNA alkylation more efficient than MCBI or CBI based agents (w794 duplex DNA): 1.5-2 ×
- DNA alkylation sequence selectivity (w794 duplex DNA): stronger preference for the fourth base to be A or T but that preference extended to include a fifth 5' A or T base

Compound: COc1ccc2c(c1)C13CC1CN(C(=O)c1cc4cc(NC(=O)c5cc6ccccc6[nH]5)ccc4[nH]1)C3=CC2=O (single isomer, unassigned) [MCBI-indole2]
- relative rate of DNA alkylation, indole2 series [2]: 1.4 ×
